Laboratory results: ChEMBL document CHEMBL1201862, “PubChem BioAssay data set” (2004)
Calls of active or inactive are those of the source.

Legend:
[1] = biological target: T1, Voltage-dependent T-type calcium channel subunit alpha-1H (Homo sapiens, UniProt O95180); assay: human CACNA1H calcium influx blockade – cell-based, synthetic library set 2, HEK293 HH8, Fluo-4, SAR follow-up (AID 493023); assay type: functional
[2] = biological target: T2, Nucleotide-binding oligomerization domain-containing protein 1 (Homo sapiens, UniProt Q9Y239); assay: SAR analysis of compounds that inhibit NOD1 - Set 3. [Related pubchem assays (depositor defined):AID1566, AID1575, AID1578, AID1849, AID1852, AID2333, AID2335, AID2466]; assay type: functional
T2 sequence (Q9Y239 whole entry): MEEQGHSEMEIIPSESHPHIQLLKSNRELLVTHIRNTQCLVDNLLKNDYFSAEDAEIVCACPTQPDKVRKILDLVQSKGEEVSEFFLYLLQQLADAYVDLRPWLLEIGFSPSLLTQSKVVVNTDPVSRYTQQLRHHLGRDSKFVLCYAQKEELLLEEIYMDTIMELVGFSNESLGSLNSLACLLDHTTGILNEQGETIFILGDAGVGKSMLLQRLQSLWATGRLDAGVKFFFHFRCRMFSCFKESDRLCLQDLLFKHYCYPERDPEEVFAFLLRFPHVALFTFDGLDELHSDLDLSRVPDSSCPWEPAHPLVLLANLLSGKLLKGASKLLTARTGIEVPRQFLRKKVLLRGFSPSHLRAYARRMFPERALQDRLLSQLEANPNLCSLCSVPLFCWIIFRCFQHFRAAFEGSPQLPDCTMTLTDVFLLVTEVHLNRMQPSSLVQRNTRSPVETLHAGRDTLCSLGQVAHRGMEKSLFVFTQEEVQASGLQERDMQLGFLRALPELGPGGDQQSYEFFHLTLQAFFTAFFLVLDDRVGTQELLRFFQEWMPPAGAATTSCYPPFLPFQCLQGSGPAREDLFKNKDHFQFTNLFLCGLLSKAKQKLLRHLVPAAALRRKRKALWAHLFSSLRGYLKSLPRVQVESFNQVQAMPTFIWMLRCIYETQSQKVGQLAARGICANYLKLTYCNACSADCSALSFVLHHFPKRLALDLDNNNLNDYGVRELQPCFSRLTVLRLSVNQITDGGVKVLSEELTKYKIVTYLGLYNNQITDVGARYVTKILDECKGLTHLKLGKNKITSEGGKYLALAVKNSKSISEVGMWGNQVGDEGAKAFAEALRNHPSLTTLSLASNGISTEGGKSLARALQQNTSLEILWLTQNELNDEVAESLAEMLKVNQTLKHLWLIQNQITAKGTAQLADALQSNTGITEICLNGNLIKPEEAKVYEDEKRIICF

Tumor necrosis factor = Tumor necrosis factor (Homo sapiens, UniProt P01375); assay: analog potency on TNFa NF-kB signaling – cell-based, set 3, SAR follow-up (AID 2801); assay type: functional
HEK293 = assay: SAR analysis of compounds that are cytotoxic to HEK293 - Set 3. [Related pubchem assays (depositor defined):AID1575, AID1578, AID1848, AID1849, AID2001, AID2333, AID2334, AID2335, AID2337, AID2469]; assay type: functional, cell-based; settings: Homo sapiens
[3] = biological target: Nucleotide-binding oligomerization domain-containing protein 2 (Homo sapiens, UniProt Q9HC29); assay: inhibition of MDP-driven NOD2 NF-kB reporter – cell-based, set 3, SAR follow-up (AID 2799); assay type: functional
Nucleotide-binding oligomerization domain-containing protein 2, sequence (Q9HC29 whole entry, the tested form may be a part): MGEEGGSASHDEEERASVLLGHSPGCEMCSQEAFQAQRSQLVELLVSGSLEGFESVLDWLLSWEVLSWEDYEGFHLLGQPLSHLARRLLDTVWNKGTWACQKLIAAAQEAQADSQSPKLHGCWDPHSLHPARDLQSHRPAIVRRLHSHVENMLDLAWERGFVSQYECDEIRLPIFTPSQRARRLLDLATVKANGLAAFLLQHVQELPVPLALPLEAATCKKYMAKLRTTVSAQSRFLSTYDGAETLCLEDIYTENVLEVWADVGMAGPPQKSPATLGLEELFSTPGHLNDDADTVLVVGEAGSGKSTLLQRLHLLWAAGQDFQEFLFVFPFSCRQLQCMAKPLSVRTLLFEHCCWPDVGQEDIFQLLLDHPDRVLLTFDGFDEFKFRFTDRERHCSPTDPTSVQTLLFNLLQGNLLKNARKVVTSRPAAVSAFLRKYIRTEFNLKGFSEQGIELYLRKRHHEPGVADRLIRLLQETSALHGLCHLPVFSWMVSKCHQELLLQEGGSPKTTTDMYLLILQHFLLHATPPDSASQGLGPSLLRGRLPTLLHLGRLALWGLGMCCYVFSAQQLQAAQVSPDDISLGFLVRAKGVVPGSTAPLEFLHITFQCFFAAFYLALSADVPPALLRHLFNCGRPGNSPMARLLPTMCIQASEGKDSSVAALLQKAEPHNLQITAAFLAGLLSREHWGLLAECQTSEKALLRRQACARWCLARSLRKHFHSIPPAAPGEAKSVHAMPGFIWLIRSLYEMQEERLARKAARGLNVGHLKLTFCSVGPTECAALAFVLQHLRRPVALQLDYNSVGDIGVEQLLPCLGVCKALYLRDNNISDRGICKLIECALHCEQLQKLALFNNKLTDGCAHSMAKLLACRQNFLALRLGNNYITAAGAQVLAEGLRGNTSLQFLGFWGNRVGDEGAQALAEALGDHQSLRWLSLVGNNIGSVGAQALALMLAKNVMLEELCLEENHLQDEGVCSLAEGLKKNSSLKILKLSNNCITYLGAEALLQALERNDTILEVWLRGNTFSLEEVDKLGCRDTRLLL

[4] = biological target: T1, Voltage-dependent T-type calcium channel subunit alpha-1H; assay: inhibition of CACNA1H calcium flux – cell-based, SynthLib3 library, HEK293 Cav3.2, fluorescence (AID 493041); assay type: functional
BJ [5] = assay: BJ-TERT fibroblast viability loss – cell-based, RAS-independent, luminescence, dose response (AID 1933); assay type: functional; settings: Homo sapiens
BJ [6] = assay: cells; assay type: functional, cell-based; settings: Homo sapiens
BJ [7] = assay: BJ-TERT-LT-ST fibroblast viability loss – cell-based, RAS-independent, luminescence, dose response (AID 1935); assay type: functional; settings: Homo sapiens;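 further: BJ fibroblasts immortalized with TERT plus LT and ST oncogenes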
[8] = DRD fibroblast viability loss – cell-based, non-viral oncogenic, luminescence, dose response (AID 1934); assay type: functional; settings: Homo sapiens
[9] = biological target: FAD-linked sulfhydryl oxidase ALR (Homo sapiens, UniProt P55789); assay: ALR-catalysed DTT oxidation blockers – biochemical, H2O2 detection, luminescence, cherry-pick, dose response (AID 493248)
FAD-linked sulfhydryl oxidase ALR, sequence (P55789 whole entry): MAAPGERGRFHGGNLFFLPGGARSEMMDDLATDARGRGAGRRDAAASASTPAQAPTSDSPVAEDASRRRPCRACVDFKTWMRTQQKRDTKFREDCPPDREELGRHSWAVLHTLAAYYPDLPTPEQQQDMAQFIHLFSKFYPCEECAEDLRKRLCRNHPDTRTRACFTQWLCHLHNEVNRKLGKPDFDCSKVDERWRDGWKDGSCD

[10] = biological target: DNA damage-inducible transcript 3 protein (Mus musculus, UniProt P35639); assay type: functional, Cricetulus griseus
DNA damage-inducible transcript 3 protein, sequence (P35639 whole entry): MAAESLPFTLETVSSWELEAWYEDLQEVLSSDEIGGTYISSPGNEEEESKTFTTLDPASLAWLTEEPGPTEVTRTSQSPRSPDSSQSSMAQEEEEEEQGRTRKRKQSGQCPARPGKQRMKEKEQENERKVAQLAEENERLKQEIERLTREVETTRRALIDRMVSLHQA

[11] = biological target: T3, Delta-type opioid receptor (Homo sapiens, UniProt P41143); assay: HTS Image-Based Screen for Antagonists of the DOR Receptor. [Related pubchem assays (depositor defined):AID1777, AID1785, AID1786, AID2133]; assay type: functional
T3 sequence (P41143 whole entry): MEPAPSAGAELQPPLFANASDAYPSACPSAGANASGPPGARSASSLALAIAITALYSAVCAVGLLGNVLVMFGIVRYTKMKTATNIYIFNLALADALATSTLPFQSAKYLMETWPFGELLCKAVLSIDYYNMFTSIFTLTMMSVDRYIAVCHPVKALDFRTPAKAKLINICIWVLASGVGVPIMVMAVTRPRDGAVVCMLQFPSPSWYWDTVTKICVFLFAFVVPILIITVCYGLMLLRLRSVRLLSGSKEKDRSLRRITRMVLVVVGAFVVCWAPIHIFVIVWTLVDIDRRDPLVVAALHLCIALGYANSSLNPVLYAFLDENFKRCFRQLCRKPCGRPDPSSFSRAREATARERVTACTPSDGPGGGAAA

Mu-type opioid receptor = Mu-type opioid receptor (Homo sapiens, UniProt P35372); assay: HTS Image-Based Screen for Agonists of the MOR Receptor. [Related pubchem assays (depositor defined):AID1777, AID1785, AID1786, AID2133]; assay type: functional;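 further: imaging of beta-arrestin GFP recruitment into spots after receptor activation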
Mu-type opioid receptor, sequence (P35372 whole entry): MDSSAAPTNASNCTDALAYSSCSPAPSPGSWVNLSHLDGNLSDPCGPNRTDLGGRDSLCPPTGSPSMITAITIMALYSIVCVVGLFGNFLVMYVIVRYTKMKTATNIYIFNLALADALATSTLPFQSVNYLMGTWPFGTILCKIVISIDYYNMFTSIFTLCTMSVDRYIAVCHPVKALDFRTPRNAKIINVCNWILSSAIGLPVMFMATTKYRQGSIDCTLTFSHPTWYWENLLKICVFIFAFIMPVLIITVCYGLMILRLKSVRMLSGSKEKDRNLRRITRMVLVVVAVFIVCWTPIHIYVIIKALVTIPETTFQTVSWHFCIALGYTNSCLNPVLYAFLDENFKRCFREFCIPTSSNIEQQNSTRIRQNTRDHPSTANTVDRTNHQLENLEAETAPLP

[12] = biological target: T3, Delta-type opioid receptor; assay: HTS Image-Based Screen for Agonists of the DOR Receptor. [Related pubchem assays (depositor defined):AID1777, AID1786, AID2133]; assay type: functional
[13] = biological target: T4, Kappa-type opioid receptor (Homo sapiens, UniProt P41145); assay type: functional
T4 sequence (P41145 whole entry): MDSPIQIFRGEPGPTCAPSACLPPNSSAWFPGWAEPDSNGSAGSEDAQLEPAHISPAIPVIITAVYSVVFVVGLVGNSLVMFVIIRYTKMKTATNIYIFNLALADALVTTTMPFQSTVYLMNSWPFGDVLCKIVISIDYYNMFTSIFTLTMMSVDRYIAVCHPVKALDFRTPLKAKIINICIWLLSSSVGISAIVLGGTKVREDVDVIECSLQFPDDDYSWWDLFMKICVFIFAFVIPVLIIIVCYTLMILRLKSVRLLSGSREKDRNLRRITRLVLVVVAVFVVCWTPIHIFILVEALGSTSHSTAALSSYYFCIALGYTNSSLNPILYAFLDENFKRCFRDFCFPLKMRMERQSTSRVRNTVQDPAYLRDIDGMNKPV

[14] = biological target: T4, Kappa-type opioid receptor; assay type: functional; remark: listed apart in the source
Melanocortin receptor 4 = Melanocortin receptor 4 (Homo sapiens, UniProt P32245); assay type: functional, cell-based;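 further: Cell-based assay with luminescence read-out, confirmatory dose-response testing for agonist activity of biased ligands at MC4R; human U2OS cells with tagged receptor and beta-arrestin; potency of agonists that increase receptor coupling to beta-arrestin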

T1 sequence (O95180 whole entry, the tested form may be a part): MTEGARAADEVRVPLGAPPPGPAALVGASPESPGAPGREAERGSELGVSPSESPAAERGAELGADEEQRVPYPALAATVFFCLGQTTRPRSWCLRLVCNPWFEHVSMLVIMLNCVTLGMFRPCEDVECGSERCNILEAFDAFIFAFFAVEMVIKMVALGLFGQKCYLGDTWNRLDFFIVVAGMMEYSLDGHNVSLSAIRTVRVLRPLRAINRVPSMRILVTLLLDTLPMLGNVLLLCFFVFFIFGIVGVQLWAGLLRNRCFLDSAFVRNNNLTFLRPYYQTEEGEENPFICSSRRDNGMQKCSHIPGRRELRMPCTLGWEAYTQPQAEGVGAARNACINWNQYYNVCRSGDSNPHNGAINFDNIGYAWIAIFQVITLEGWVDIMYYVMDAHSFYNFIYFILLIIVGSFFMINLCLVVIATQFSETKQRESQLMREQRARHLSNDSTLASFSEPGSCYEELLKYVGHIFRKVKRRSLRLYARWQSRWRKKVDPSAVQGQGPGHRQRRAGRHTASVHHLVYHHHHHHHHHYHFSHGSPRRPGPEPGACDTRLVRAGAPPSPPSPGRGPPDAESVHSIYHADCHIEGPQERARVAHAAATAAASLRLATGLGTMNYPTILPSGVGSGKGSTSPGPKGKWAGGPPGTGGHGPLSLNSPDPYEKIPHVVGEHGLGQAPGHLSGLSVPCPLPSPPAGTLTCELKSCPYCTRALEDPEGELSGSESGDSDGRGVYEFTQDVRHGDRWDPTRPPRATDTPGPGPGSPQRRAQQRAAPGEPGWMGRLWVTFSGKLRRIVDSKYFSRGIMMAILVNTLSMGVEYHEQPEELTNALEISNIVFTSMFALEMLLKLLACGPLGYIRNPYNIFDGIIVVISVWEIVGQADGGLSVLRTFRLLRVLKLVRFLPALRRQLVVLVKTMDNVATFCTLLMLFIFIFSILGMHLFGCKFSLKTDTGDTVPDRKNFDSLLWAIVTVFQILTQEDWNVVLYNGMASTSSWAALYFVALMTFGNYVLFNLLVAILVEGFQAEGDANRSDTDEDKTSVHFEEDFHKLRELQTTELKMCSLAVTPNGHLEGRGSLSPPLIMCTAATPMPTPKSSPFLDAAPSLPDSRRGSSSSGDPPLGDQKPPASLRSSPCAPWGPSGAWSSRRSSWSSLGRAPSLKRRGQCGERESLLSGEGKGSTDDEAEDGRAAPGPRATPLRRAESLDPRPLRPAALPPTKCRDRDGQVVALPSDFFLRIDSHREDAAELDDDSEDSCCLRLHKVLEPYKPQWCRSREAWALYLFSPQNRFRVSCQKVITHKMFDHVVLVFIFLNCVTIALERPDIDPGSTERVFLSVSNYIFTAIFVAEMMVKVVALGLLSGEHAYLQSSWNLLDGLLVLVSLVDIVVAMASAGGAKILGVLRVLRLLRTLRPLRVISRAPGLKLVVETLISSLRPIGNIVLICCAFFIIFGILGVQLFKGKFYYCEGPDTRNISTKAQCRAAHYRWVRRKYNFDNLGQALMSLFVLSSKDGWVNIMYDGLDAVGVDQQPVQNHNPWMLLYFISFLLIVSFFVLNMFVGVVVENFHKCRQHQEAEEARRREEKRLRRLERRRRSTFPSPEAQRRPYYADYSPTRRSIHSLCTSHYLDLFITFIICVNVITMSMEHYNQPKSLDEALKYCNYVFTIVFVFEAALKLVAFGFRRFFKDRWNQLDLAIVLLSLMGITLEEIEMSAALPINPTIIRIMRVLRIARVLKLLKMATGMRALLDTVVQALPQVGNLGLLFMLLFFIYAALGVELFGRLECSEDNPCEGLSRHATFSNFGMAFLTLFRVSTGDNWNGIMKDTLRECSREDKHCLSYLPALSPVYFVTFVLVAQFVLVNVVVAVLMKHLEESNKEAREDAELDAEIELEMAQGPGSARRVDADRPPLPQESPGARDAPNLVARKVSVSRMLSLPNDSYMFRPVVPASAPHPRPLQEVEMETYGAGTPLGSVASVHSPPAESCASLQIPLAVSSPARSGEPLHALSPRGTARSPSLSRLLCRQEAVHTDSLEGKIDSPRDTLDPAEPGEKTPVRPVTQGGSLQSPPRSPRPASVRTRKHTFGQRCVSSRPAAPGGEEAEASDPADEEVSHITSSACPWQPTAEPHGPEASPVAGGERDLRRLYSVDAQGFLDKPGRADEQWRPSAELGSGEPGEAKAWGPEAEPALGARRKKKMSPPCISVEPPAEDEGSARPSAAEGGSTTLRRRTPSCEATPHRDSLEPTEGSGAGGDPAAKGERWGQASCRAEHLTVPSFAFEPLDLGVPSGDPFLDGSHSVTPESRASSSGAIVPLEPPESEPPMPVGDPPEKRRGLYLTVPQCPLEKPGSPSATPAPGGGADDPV

For `O=C(COc1ccc(F)cc1Cl)N[C@@H]1CCCN(Cc2ccccc2)C1`, the EC50 [1] was 10 µM (active).

For `CC(C)C(=O)N(C)C(c1ccccc1)c1c[nH]c2ccccc12` (stereo not drawn), the IC50 [2] was > 20 µM (inactive), the IC50 (Tumor necrosis factor) was > 20 µM (inactive) and the IC50 (HEK293) was > 20 µM (inactive). The IC50 [3] was > 20 µM (inactive).

For `CCC(C)CN1CCC[C@H](NC(=O)COc2ccc(F)c(Cl)c2)C1` (stereo partly drawn), the EC50 [4] was 10 µM (active).

In the case of `COc1ccc(N/N=C(\C=N\O)C(=O)c2ccc(OC)cc2)cc1`, the EC50 (BJ [5]) is reported as 1.56 µM (inconclusive), the EC50 (BJ [6]) is reported as 49 µM (active) and the EC50 (BJ [7]) is reported as 2.41 µM (inconclusive). For the same molecule, the EC50 [8] was 1.15 µM (active), the AC50 [9] was 0.009 µM (active) and the “Absolute IC50 (CHOP)” value [10] was 10 µM.

With `Nc1ccc(C2(c3ccc(N)cc3)c3ccccc3-c3ccccc32)cc1` the IC50 [11] was > 32 µM (inactive), the EC50 (Mu-type opioid receptor) was > 32 µM (inactive) and the EC50 [12] was > 32 µM (inactive). For the same molecule, the EC50 [13] was over 35 µM, the EC50 [14] was 8.41 µM and the EC50 (Melanocortin receptor 4) was > 89.2 µM (inactive).
